Source: ChEMBL document CHEMBL1152168 (Bioorg Med Chem Lett, 2008)
pIC50: −log10 of the molar value.

experiment: Inhibition of MEK-mediated ERK phosphorylation in PDGF-stimulated mouse K-Balb cells treated as single oral dose preincubated for 1 hr before PDGF challenge by whole cell assay

pIC50	SMILES
8.35	CCCONC(=O)c1ccc(F)c(F)c1Nc1ccc(I)cc1C
6.92	Cc1cc(I)ccc1Nc1c(C(=O)NOCC2CCCC2)cc(Br)c(F)c1F
7.93	CONC(=O)c1ccc(F)cc1Nc1ccc(I)cc1C
8.38	CCONC(=O)c1ccc(F)c(F)c1Nc1ccc(I)cc1C

experiment: Inhibition of MEK-mediated phosphorylation of myelin basic protein by kinase cascade assay

SMILES	pIC50
Cc1cc(I)ccc1Nc1ccccc1C(=O)O	6.41
O=C(O)c1ccccc1Nc1ccc(I)cc1	5.52
O=C(O)c1ccccc1Nc1ccccc1I	< 5.00
Cc1cc(I)ccc1Nc1cccc(F)c1C(=O)O	6.29
Cc1cc(I)ccc1Nc1cc(Cl)ccc1C(=O)O	6.26
Cc1cc(I)ccc1Nc1ccc(F)cc1C(=O)O	6.78
O=C(O)c1ccccc1Nc1cccc(I)c1	< 5.00

Results, then the molecule that gave them:

pIC50	SMILES
7.82	Cc1cc(I)ccc1Nc1cc(F)ccc1C(=O)O
8.17	Cc1cc(I)ccc1Nc1c(C(=O)O)cc(F)c(F)c1F
8.24	Cc1cc(I)ccc1Nc1c(C(=O)O)ccc(F)c1F
7.74	CCCONC(=O)c1ccc(F)c(F)c1Nc1ccc(I)cc1C
7.64	Cc1cc(I)ccc1Nc1c(C(=O)NOCC2CCCC2)cc(Br)c(F)c1F
7.59	CONC(=O)c1ccc(F)cc1Nc1ccc(I)cc1C
7.70	CCONC(=O)c1ccc(F)c(F)c1Nc1ccc(I)cc1C

experiment: Inhibition of MEK-stimulated ERK phosphorylation in PDGF-stimulated mouse C26 cells treated as single oral dose before PDGF challenge by whole cell assay; type: cell-based

pIC50	SMILES
7.72	O=C(NOCC(O)CO)c1ccc(F)c(F)c1Nc1ccc(I)cc1Cl (racemic)

experiment: Inhibition of MEK-mediated ERK phosphorylation in PDGF-stimulated mouse K-Balb cells treated as single oral dose preincubated for 24 hrs before PDGF challenge by whole cell assay

pIC50	SMILES
6.87	CCCONC(=O)c1ccc(F)c(F)c1Nc1ccc(I)cc1C
6.18	Cc1cc(I)ccc1Nc1c(C(=O)NOCC2CCCC2)cc(Br)c(F)c1F
7.30	CONC(=O)c1ccc(F)cc1Nc1ccc(I)cc1C
7.33	CCONC(=O)c1ccc(F)c(F)c1Nc1ccc(I)cc1C
